Data reported in the NIST ThermoML archive (doi:10.1016/j.fluid.2017.12.031).
“And” between values parts separate entries of the source, which are not always exact repeats. Equal entries are not always repeated.

What was measured:
[1] = excess molar enthalpy (molar enthalpy of mixing); xn = mol fraction of the nth substance listed; conditions: 101 kPa, Liquid, Flow calorimetry
[2] = 313.15 K; Liquid; Closed cell (Static) method

C=CCCCC [hex-1-ene] + CCCC(C)O
[1], x2 = 0
Conditions | excess molar enthalpy [kcal/mol]
298.15 K | 0
313.15 K | 0

Cc1ccc(C)c(C)c1 [1,2,4-trimethylbenzene]
Conditions | vapor or sublimation pressure [kPa]
[2] | 0.73

Cc1ccc(C)c(C)c1 [1,2,4-trimethylbenzene] + CCCC(C)O
excess molar enthalpy [kcal/mol], [1]
Conditions | 298.15 K | 313.15 K
x2 = 0 | 0 | 0
x2 = 0.0499 | 0.144 | 0.149
x2 = 0.0987 | – | 0.237
x2 = 0.1012 | 0.218 | –
x2 = 0.149 | 0.264 | 0.295
x2 = 0.1982 | – | 0.334
x2 = 0.2006 | 0.297 | –
x2 = 0.2487 | 0.322 | –
x2 = 0.2509 | – | 0.361
x2 = 0.298 | 0.338 | –
x2 = 0.3002 | – | 0.382
x2 = 0.3485 | 0.35 | –
x2 = 0.3507 | – | 0.392
x2 = 0.3979 | 0.358 | 0.399
x2 = 0.4482 | 0.36 | –
x2 = 0.4504 | – | 0.4
x2 = 0.4996 | 0.356 | 0.397
x2 = 0.5476 | – | 0.386
x2 = 0.5496 | 0.349 | –
x2 = 0.6005 | – | 0.369
x2 = 0.6006 | 0.334 | –
x2 = 0.6482 | – | 0.346
x2 = 0.6502 | 0.313 | –
x2 = 0.6987 | – | 0.318
x2 = 0.6988 | 0.289 | –
x2 = 0.7479 | – | 0.285
x2 = 0.748 | 0.259 | –
x2 = 0.7978 | – | 0.243
x2 = 0.7979 | 0.22 | –
x2 = 0.8481 | – | 0.194
x2 = 0.8482 | 0.176 | –
x2 = 0.8989 | – | 0.138
x2 = 0.899 | 0.124 | –
x2 = 0.9501 | – | 0.0718
x2 = 0.9502 | 0.0647 | –

CCCC(C)O (configuration not stated) [pentan-2-ol]
Conditions | vapor or sublimation pressure
[2] | 2.281 kPa and 2.268 kPa

Cc1ccc(C)c(C)c1 [1,2,4-trimethylbenzene] + CCCCCO
excess molar enthalpy [kcal/mol], [1]
Conditions | 298.15 K | 313.15 K
x2 = 0 | 0 | 0
x2 = 0.0503 | 0.124 | 0.139
x2 = 0.0995 | 0.175 | 0.207
x2 = 0.15 | 0.204 | 0.248
x2 = 0.1995 | 0.22 | 0.273
x2 = 0.2501 | 0.233 | –
x2 = 0.2502 | – | 0.289
x2 = 0.2997 | 0.241 | 0.297
x2 = 0.3481 | 0.243 | 0.3
x2 = 0.3998 | 0.24 | 0.3
x2 = 0.4481 | 0.234 | –
x2 = 0.4482 | – | 0.295
x2 = 0.4995 | 0.223 | 0.283
x2 = 0.5495 | 0.21 | –
x2 = 0.5496 | – | 0.268
x2 = 0.5985 | 0.194 | –
x2 = 0.5986 | – | 0.25
x2 = 0.6482 | 0.175 | 0.227
x2 = 0.6985 | 0.153 | –
x2 = 0.6986 | – | 0.203
x2 = 0.7494 | 0.129 | –
x2 = 0.7495 | – | 0.173
x2 = 0.7991 | 0.104 | 0.142
x2 = 0.8492 | 0.0777 | 0.108
x2 = 0.8997 | 0.0527 | 0.0729
x2 = 0.9505 | 0.0253 | 0.0354

CCCC(C)O (configuration not stated) [pentan-2-ol] + C=CCCCC
excess molar enthalpy [kcal/mol], [1]
Conditions | 298.15 K | 313.15 K
x1 = 0.05 | – | 0.141
x1 = 0.0503 | 0.117 | –
x1 = 0.0999 | 0.158 | 0.196
x1 = 0.1511 | 0.183 | –
x1 = 0.1512 | – | 0.229
x1 = 0.2015 | 0.202 | –
x1 = 0.2017 | – | 0.254
x1 = 0.2513 | 0.216 | –
x1 = 0.2516 | – | 0.266
x1 = 0.3027 | 0.225 | –
x1 = 0.3028 | – | 0.277
x1 = 0.3512 | 0.23 | –
x1 = 0.3513 | – | 0.282
x1 = 0.4032 | 0.234 | –
x1 = 0.4034 | – | 0.282
x1 = 0.4509 | – | 0.278
x1 = 0.4525 | 0.234 | –
x1 = 0.5014 | – | 0.271
x1 = 0.503 | 0.23 | –
x1 = 0.5513 | – | 0.262
x1 = 0.5529 | 0.222 | –
x1 = 0.6005 | – | 0.248
x1 = 0.6018 | 0.21 | –
x1 = 0.6523 | 0.194 | 0.227
x1 = 0.702 | 0.175 | 0.205
x1 = 0.751 | 0.151 | 0.18
x1 = 0.8004 | 0.123 | –
x1 = 0.8012 | – | 0.149
x1 = 0.85 | 0.0935 | –
x1 = 0.8506 | – | 0.115
x1 = 0.9007 | 0.0574 | –
x1 = 0.9012 | – | 0.0742
x1 = 0.9507 | 0.0268 | –
x1 = 0.9509 | – | 0.0371
x1 = 1 | 0 | 0

C=CCCCC [hex-1-ene]
Conditions | vapor or sublimation pressure
[2] | 44.91 kPa and 44.95 kPa

C=CCCCC [hex-1-ene] + CCCCCO
excess molar enthalpy [kcal/mol], [1]
Conditions | 298.15 K | 313.15 K
x2 = 0 | 0 | 0
x2 = 0.0506 | – | 0.121
x2 = 0.0507 | 0.095 | –
x2 = 0.1005 | – | 0.159
x2 = 0.1006 | 0.119 | –
x2 = 0.152 | – | 0.179
x2 = 0.1522 | 0.134 | –
x2 = 0.2027 | – | 0.192
x2 = 0.203 | 0.143 | –
x2 = 0.2528 | – | 0.195
x2 = 0.2531 | 0.148 | –
x2 = 0.3021 | – | 0.198
x2 = 0.3022 | 0.151 | –
x2 = 0.3526 | – | 0.193
x2 = 0.353 | 0.15 | –
x2 = 0.4026 | – | 0.19
x2 = 0.403 | 0.146 | –
x2 = 0.4519 | – | 0.183
x2 = 0.4523 | 0.138 | –
x2 = 0.5026 | – | 0.172
x2 = 0.503 | 0.129 | –
x2 = 0.5524 | – | 0.159
x2 = 0.5529 | 0.118 | –
x2 = 0.6035 | – | 0.144
x2 = 0.604 | 0.106 | –
x2 = 0.6519 | – | 0.127
x2 = 0.6523 | 0.0912 | –
x2 = 0.7019 | 0.0776 | 0.109
x2 = 0.7526 | 0.0629 | 0.0888
x2 = 0.8008 | 0.0478 | –
x2 = 0.8025 | – | 0.0681
x2 = 0.8482 | 0.0348 | –
x2 = 0.8517 | – | 0.0505
x2 = 0.9019 | – | 0.0316
x2 = 0.902 | 0.0208 | –
x2 = 0.9513 | 0.00908 | 0.0139

CCCC(C)O (configuration not stated) [pentan-2-ol] + Cc1ccc(C)c(C)c1
[1], x1 = 1
Conditions | excess molar enthalpy [kcal/mol]
298.15 K | 0
313.15 K | 0

CCCCCO [pentan-1-ol] + C=CCCCC
[1], x1 = 1
Conditions | excess molar enthalpy [kcal/mol]
298.15 K | 0
313.15 K | 0

CCCCCO [pentan-1-ol] + Cc1ccc(C)c(C)c1
[1], x1 = 1
Conditions | excess molar enthalpy [kcal/mol]
298.15 K | 0
313.15 K | 0

CCCCCO [pentan-1-ol]
Conditions | vapor or sublimation pressure
[2] | 0.913 kPa and 0.918 kPa
